Consider one molecule from publication PMC11898701, “Evaluating Therapeutic Efficacy of the Vascular Disrupting Agent OXi8007 Against Kidney Cancer in Mice” (Cancers, 2025).

The test system of series [1] is orthotopic Renca-luc tumors. In words: Acute response by dynamic bioluminescence imaging (BLI) and histology. It is filed as in vivo, mouse. The method, then: Anesthesia was induced with 1–3% isoflurane, and the mice were placed on the warmed imaging stage of an IVIS Spectrum® small animal imaging system (Xenogen/PerkinElmer Inc., Waltham, MA, USA) with continuous exposure to 1 to 2% isoflurane, as described previously. On successive occasions, mice were administered 75 µL of D-luciferin (sodium salt; Gold Biotechnology, St. Louis, MO, USA) SC in the fore back neck region as a 40 mg/mL solution in 0.9% saline. The BLI signal was quantified as the total flux using Living Image Software 4.3.7. Fresh luciferin was administered 4 and 24 h after drug administration to reveal acute changes in tumor perfusion.
Acute effects of OXi8007 were examined on Renca-luc tumor-bearing mice using BLI (n = 8) and MSOT (n = 6) by comparing images at the baseline [pre (0 h)] and following OXi8007 administration (IP) at 4 h and 24 h. Dynamic BLI images were acquired every minute over the course of 15–20 min immediately following luciferin injection. For MSOT, the same mice underwent a gas breathing challenge for 5 min in air (21% O2), 7 min in O2 (100% O2), followed by 3 min in air at 0 h, 4 h, and 24 h post-treatment.

Series [2] deals with Renca cells. In words: Microtubule disruption and cell morphology in Renca cells. It is filed as cell-based, mouse. As to conditions: 2.5 and 5 µM.
Procedure: Renca cells were plated in cell culture-treated 96-well plates (Grenier Bio-One North America Inc., Monroe, NC, USA) at 2000 cells/well and allowed to adhere for 24 h before treatment. Hoechst 33342 (1 μg/mL) in complete RPMI 1640 medium was used to stain the cell nuclei for 15 min at 37 °C. […] The medium was removed to reduce background fluorescence, followed by two wash cycles with fresh medium. Fresh medium containing 25 μM of verapamil hydrochloride was added to the stained cells prior to imaging. Images of the microtubule cytoskeleton and nuclei were collected over 3 h using a Biotek Lionheart microscope ELx800 in fluorescence mode with a 20× objective.
Series [3] concerns orthotopic Renca-luc tumors. In words: Acute response by oxygen-enhanced MSOT. The series is classed as in vivo, mouse. The method, then:
For the multispectral optoacoustic tomography (MSOT), an iThera InVision 256-TF device with seven wavelengths (700, 730, 760, 780, 800, 820, and 875 nm) was used. Mice were shaved and depilated around the tumor region. The anesthetized mouse (1–2% isoflurane) was placed in the imaging chamber (34 °C) for 10 min to reach thermal equilibrium before imaging a single slice showing the largest cross-section of the tumor. An oxygen gas breathing challenge was performed to assess the dynamic changes in blood oxygenation. Images were generated using ViewMSOT version 4.2 with a back projection-based reconstruction algorithm followed by built-in fluence correction. Oxy- and deoxyhemoglobin were resolved using a linear regression approach.
Oxygen saturation (sO2) maps were analyzed using MATLAB 2022b (MathWorks Inc., Natick, MA, USA), and the images were visualized with Fiji. The percentage of hemoglobin saturation (sO2) was calculated as follows:[…]
Blank pixels represent areas lacking a detectable hemoglobin signal. The average sO2^MSOT was calculated pixelwise in each ROI for the air and oxygen breathing periods as sO2^MSOT (Air) and sO2^MSOT (O2), and the response to the oxygen gas challenge was as follows:∆sO2 = sO2 (O2) − sO2 (Air)(2) […]

Series [4] concerns Renca cells. In words: Wound (scratch) assay. It is filed as cell-based, mouse. Conditions: ≥ 2.5 µM, over 48 h. The protocol: Renca cells were plated at a seeding density of approximately 3 × 10^5 cells per well in a 6-well plate and allowed to reach confluency before treatment. A scratch was made with a sterile 10 µL pipette tip in each well before removing the medium and any detached cells. […] Hoechst 33342 was added to each well at a final concentration of 1 µg/mL and incubated for 15 min at 37 °C to stain the cell nuclei. Gen5 version 3.14 software was used for cellular and statistical analysis of the wound closure data.

Series [5] relates to orthotopic Renca-luc tumors. In words: Long-term therapy with OXi8007 and/or cabozantinib. The series is classed as in vivo, mouse. The protocol:
OXi8007, synthesized by the Pinney Laboratory using published procedures, was dissolved in saline, verified to be in the pH range 7.3 to 7.5, and dosed at 250 mg/kg (IP). Cabozantinib (in PEG400 and ultrapure H2O (Milli-Q)) was administered at 3 mg/kg by oral gavage. Anti-PD-1 (10 mg/kg, Bio X Cell, Lebanon, NH, USA) and anti-CTLA-4 (5 mg/kg, Bio X Cell, Lebanon, NH) solutions were administered (IP) on the day before OXi8007 […].
We evaluated the longitudinal effects of OXi8007 alone and in combination with drugs currently favored for treating kidney cancer. For Renca-luc tumor-bearing mice, BLI was performed at least once a week to estimate tumor size, and mice were weighed weekly to adjust the dose as needed. Two treatment cohorts examined syngeneic orthotopic Renca-luc tumors in male BALB/c mice. Treatment started when the tumors reached about 1 × 10^6 photons/s peak total flux on BLI. The first cohort examined OXi8007 with cabozantinib. Mice were divided into four groups. Mice were assigned to groups as soon as there were sufficient to add the same numbers of animals to each group. The specific assignment was defined using the random number function in Excel. […] The second cohort was treated with CKIs and OXi8007 using four groups: Group 5 (OXi8007 + anti-PD-1 (10 mg/kg) + anti-CTLA-4 (5 mg/kg); n = 4), Group 6 (saline + anti-PD-1+ anti-CTLA-4; n = 3), Group 7 (saline + anti-PD-1; n = 3), and Group 8 (saline + anti-CTLA-4; n = 4). CKI antibodies were administered thrice weekly (M, W, F) for the first two weeks after the first treatment with OXi8007, which was administered twice weekly. […] Initial tumor growth was confirmed by palpation, and the mice were assigned to groups such that the first mouse with a confirmed tumor was assigned to Group 5, next to Group 6, etc., ensuring that all groups had both faster- and slower-growing tumors. […] Tumor size (BLI signal) and mouse body weights were compared using an ANOVA and multiple comparisons at a significance level of p < 0.05. Kaplan–Meier survival curves were compared using a non-parametric log-rank test using SAS software (SAS Institute Inc., SAS Viya for learners 4, Cary, NC, USA).

The test system of series [6] is subcutaneous MDA-MB-231 tumors. Further details: method as in earlier work. Conditions: cited from earlier work.

Consider `COc1ccc2c(C(=O)c3cc(OC)c(OC)c(OC)c3)c(-c3ccc(OC)c(OP(=O)(O)O)c3)[nH]c2c1` [OXi8007], for which the “BLI signal relative to baseline” value in series [1] (4 h after OXi8007 250 mg/kg IP, 8 mice) was less than 2 % baseline. In addition, in series [1] (Renca-luc, within 4 h post-treatment), the Histology of tumor result is reported as “extensive intratumoral hemorrhage”. Further, the “Vascular shutdown (BLI)” value in series [1] (within 4 h, orthotopic kidney tumors) was greater than 98%. In the series on Renca cells [2], the “Effect on microtubule structure” value is “rapid progressive loss of microtubule structure”. In series [3] (350 mg/kg IP in situ using a catheter, while breathing O2), the “Period of vascular hypoxiation to plateau (MSOT)” value is “about 30 min”. In series [3] (after intraperitoneal administration), the “Time to hypoxiation (photoacoustic imaging)” value is no more than 30 min. Also, the Wound closure result with Renca cells [4] is “significantly depressed”. Besides, the “Toxicity in adult mice” value in series [5] (250 mg/kg IP twice weekly up to 7 weeks) was “no overt toxicity”. Besides, the “Body weight at week 7 versus baseline” value in series [5] (Renca-luc BALB/c mice, 250 mg/kg IP twice weekly) was “significant loss in body weight”. In addition, the “Body weight loss versus pre-treatment baseline” value in series [5] (Renca-luc BALB/c mice, OXi8007 alone) is on record as ~ 11%. Also, the “Tumor growth delay (BLI)” value in series [5] (Renca-luc, versus control) is “no significant growth delay”. Also, the “Overall survival versus control” value in series [5] (Renca-luc, 250 mg/kg IP twice weekly, log-rank p = 0.053) is recorded as “no overall survival benefit”. Also, the Tumor growth delay result in series [6] was “significant tumor growth delay”.
